Assay results published in patent publication US20070027064A1, “Pharmaceutical compositions for inhibiting metal ion dependent enzymatic activity and methods for the use thereof” (priority 2003, published 2007).

Experiments:
[1] = tested on: inducible nitric oxide synthetase (iNOS); design: inducible nitric oxide synthetase (iNOS): dose or concentration left out as unconfirmed; settings: murine macrophages, cited from earlier work
[2] = tested on: inducible nitric oxide synthetase; settings: rat mesangial cells; cited from earlier work
cancer cells = settings: examined over 0.1-10 μM, FIG. 1
Excerpt: It is recognized that the induction of MMPs is a key event in angiogenesis and metastatic tumor cell invasiveness.

tumor cells = settings: 0.0001-0.1 μM TPEN, filters coated with collagen IV
Description: Chemotaxis evaluation was performed in a similar way to basement membrane invasion, with the exception that the filters were coated with […] collagen IV instead of Matrigel.

MMP-2 = MMP-2 (Homo sapiens, UniProt P08253)
MMP-2, sequence (P08253 110-660): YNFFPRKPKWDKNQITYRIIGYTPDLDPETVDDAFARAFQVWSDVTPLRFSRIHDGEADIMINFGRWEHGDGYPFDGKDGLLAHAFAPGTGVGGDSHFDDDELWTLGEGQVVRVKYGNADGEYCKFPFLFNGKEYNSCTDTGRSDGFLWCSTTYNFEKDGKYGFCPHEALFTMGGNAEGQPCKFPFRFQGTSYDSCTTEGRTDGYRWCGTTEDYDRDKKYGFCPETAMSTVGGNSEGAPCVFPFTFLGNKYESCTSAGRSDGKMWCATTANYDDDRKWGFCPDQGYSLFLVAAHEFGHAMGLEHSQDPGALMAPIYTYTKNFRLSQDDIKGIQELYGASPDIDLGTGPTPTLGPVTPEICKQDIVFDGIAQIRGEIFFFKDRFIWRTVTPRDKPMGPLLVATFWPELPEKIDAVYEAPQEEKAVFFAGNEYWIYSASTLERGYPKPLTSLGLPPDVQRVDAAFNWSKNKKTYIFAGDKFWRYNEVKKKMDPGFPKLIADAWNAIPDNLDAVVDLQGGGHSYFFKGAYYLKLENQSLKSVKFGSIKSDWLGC
Description: (§1) Sub-confluent cell cultures were incubated for 6-24 h in serum-free DMEM and the resulted supernatant were analyzed for collagenolytic activity. The collagenolytic activity was determined on a gelatin impregnated (1 mg/ml, Difco, Detroit, Mich.), SDS-PAGE 8% gel, with minor modifications. […] The gels were then incubated for 16 hours at 37° C. in 50 mM Tris, 0.2M NaCl, 5 mM CaCl2, 0.02% Brij 35 (w/v) at pH 7.6. At the end of the incubation period, the gels were stained with 0.5% Coomassie G 250 (Bio-Rad Richmond Calif.) in methanol/acetic acid/H2O (30:10:60). The intensity of the various bands was determined on a computerized densitometer (Molecular Dynamics type 300A).

MMP-9 = MMP-9 (Homo sapiens, UniProt P14780)
MMP-9, sequence (P14780 94-707): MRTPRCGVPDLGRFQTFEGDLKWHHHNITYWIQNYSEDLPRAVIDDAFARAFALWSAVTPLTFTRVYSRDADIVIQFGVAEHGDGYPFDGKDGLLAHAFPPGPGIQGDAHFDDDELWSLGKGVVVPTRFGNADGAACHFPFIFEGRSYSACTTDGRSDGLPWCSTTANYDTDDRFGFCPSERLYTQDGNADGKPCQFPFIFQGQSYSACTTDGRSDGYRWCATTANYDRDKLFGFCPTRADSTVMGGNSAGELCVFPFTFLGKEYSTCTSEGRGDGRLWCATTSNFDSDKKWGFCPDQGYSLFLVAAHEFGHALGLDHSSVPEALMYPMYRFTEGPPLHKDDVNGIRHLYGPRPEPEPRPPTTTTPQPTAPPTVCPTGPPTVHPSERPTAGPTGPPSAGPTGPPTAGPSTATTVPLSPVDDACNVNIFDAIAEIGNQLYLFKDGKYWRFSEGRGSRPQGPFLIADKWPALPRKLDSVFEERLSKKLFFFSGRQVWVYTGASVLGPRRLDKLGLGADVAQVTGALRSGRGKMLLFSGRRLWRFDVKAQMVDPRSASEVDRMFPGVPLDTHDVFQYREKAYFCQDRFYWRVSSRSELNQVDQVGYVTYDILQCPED
Description: as §1

[3] = cited from earlier work
[4] = 6 hours of incubation, HT1080, TPEN 0.001-0.1 micromolar, FIG. 4A
[5] = 24 hours of incubation, HT1080, FIG. 4B

Compound | nitric oxide production ([1]; COL-3 between 2.5 and 10 µg/mL, concentration-dependent) | inducible nitric oxide synthetase (iNOS) ([1]; COL-3 between 2.5 and 10, concentration-dependent) | inducible nitric oxide synthetase protein expression [2] | nitric oxide production [2] | concentration above which TPEN has a toxic effect (cancer cells) | chemotactic activity of the cells (tumor cells) | MMP-2 activity, % from the control (MMP-2; [4]) [%] | inhibition of MMP-2 activity after 24 hours (MMP-2; [5]) | MMP-9 activity, % from the control (MMP-9; [4]) [%] | inhibition of MMP-9 activity after 24 hours (MMP-9; [5]) | Ion affinity ([3]; rank order of metal ions) | metal binding ([3]; under physiological blood concentration)
NC(=O)C1=C(O)C[C@@H]2C[C@@H]3Cc4cccc(O)c4C(=O)C3=C(O)[C@]2(O)C1=O [COL-3, 6-demethyl-6-deoxy-4-dedimethylaminotetracycline] | inhibited | inhibited | decrease | decrease |  |  |  |  |  |  |  | 
c1ccc(CN(CCN(Cc2ccccn2)Cc2ccccn2)Cc2ccccn2)nc1 [TPEN, NNN′N′-Tetrakis-(2-pyridyl-methyl)-ethylenediamine] |  |  |  |  | above 0.1 μM | not affected | 32 | disappeared | 64 | disappeared | Zn^2+ > Fe^2+ > Mn^2+ >> Ca^2+ > Mg^2+ | binds zinc, iron, and copper but does not bind magnesium and calcium
